Measurements published in US20090093423A2, “NOVEL 2-SUBSTITUTED METHYL PENAM DERIVATIVES” (Orchid Chemicals and Pharmaceuticals Limited, priority 2006, published 2009).

Tests used:
[1] = Intravenous pharmacokinetics in mice; assay type: in vivo, Swiss mice; settings: mouse, in vivo, iv
Text: Blood samples were collected at different time points. These samples were processed and analyzed by HPLC.

M. morganii 13702 = test: MIC, Agar Dilution Method; assay type: cell-based; settings: inhibitor 1 μg/mL
Experimental: (§1) The novel compounds were tested for the in vitro antibacterial activities by the Agar Dilution Method as specified in documents published by NCCLS, now CLSI, USA. (National Committee for Clinical Laboratory Standards (NCCLS). 2003. Approved standard M7-A6. NCCLS, Villanova, Pa.).
(§2) Tazo was also dissolved in same buffer to get a solution of, e.g., 1 mg/mL. Novel penam derivatives described herein were dissolved in water to get a solution of, e.g., 1 mg/mL.
(§3) The novel compounds and Tazo were also tested individually. The bacterial inoculum was prepared by picking 3 to 5 well-isolated bacterial colonies with the same morphological appearance from an 18-24 h old culture and adjusting the turbidity of the saline suspension to 0.5 McFarland Turbidity Standard equivalent to a bacterial population of 1.5×10^8 colony forming units (CFU) per mL of suspension. The suspension was diluted 1:10 in saline (i.e. 0.5 mL suspension+4.5 mL saline) to get a bacterial population of 1.5×10^7 CFU/mL as inoculum. […] The inoculated petridishes were incubated at 35° C. in an ambient atmosphere for 16-20 h.

M. morganii 13701 = test: MIC, Agar Dilution Method; assay type: cell-based; settings: inhibitor 1 μg/mL
Experimental: as §1, §2, §3

E. cloacae 11802 = test: MIC, Agar Dilution Method; assay type: cell-based; settings: inhibitor 1 μg/mL
Experimental: as §1, §2, §3

E. coli 10001 = test: MIC, Agar Dilution Method; assay type: cell-based; settings: strain 10001 (uncharacterized-ESBL clinical strain); inhibitor 1 μg/mL
Experimental: as §1, §2, §3

P. aeruginosa ATCC 27853 = test: MIC, Agar Dilution Method; assay type: cell-based; settings: inhibitor 1 μg/mL
Experimental: as §1, §2, §3

E. cloacae 11801 = test: MIC, Agar Dilution Method; assay type: cell-based; settings: inhibitor 1 μg/mL
Experimental: as §1, §2, §3

K. pneumoniae MRO 11007 = test: MIC, Agar Dilution Method; assay type: cell-based; settings: strain 11007 (uncharacterized-ESBL clinical strain); inhibitor 1 μg/mL
Experimental: as §1, §2, §3

S. odonifera 13801 = test: MIC, Agar Dilution Method; assay type: cell-based; settings: inhibitor 1 μg/mL
Experimental: as §1, §2, §3

K. pneumoniae 11012 = test: MIC, Agar Dilution Method; assay type: cell-based; settings: inhibitor 1 μg/mL
Experimental: as §1, §2, §3

[2] = system: M. catarrhalis ATCC 43617; test: MIC, Agar Dilution Method; assay type: cell-based; settings: inhibitor 1 μg/mL
Experimental: as §1, §2, §3

E. coli 10004 = test: MIC, Agar Dilution Method; assay type: cell-based; settings: inhibitor 1 μg/mL
Experimental: as §1, §2, §3

C. freundii 12301 = test: MIC, Agar Dilution Method; assay type: cell-based; settings: inhibitor 1 μg/mL
Experimental: as §1, §2, §3

P. aeruginosa 15021 = test: MIC, Agar Dilution Method; assay type: cell-based; settings: inhibitor 1 μg/mL
Experimental: as §1, §2, §3

K. pneumoniae MRO 11008 = test: In vivo efficacy, infected mice; settings: Swiss albino mice infected with K. pneumoniae MRO 11008; Piperacillin:inhibitor 4:1; 7-day survival
Experimental: (§4) The efficacy studies were performed as described earlier (Kuck et al, 1989, Antimicrob. Agents. Chemother. 33(11): 1964-1969). Briefly, Swiss albino mice, 20+2 g, from in-house breeding facility were challenged by the intraperitoneal injection of bacterial suspensions in 0.5 mL of hog gastric mucin (10 to 100 50% lethal doses). […] All the untreated control animals died within 48 h of infection. In each experiment, in-house Tazo was used as an inhibitor control in four doses. Median (50%) effective dose (ED50) were determined by applying the Reed and Muench's method of the 7-day survival ratios.

E. coli MRO 10007 = test: In vivo efficacy, infected mice; settings: Swiss albino mice infected with E. coli MRO 10007; Piperacillin:inhibitor 4:1; 7-day survival
Experimental: as §4

E. coli MRO 10006 = test: In vivo efficacy, infected mice; settings: Swiss albino mice infected with E. coli MRO 10006; Piperacillin:inhibitor 4:1; 7-day survival
Experimental: as §4

Question: Which results are given for `C[C@]1(Cn2ccnn2)[C@H](C(=O)O)N2C(=O)C[C@H]2S1(=O)=O` [Tazo]?
Answer: Elimination half-life [1]: 16.1 min; MIC of Piperacillin with Tazo or compounds described herein at 1 μg/mL (M. morganii 13702): <0.25 µg/mL; MIC of Piperacillin with Tazo or compounds described herein at 1 μg/mL (M. morganii 13701): 16 µg/mL; MIC of Piperacillin with Tazo or compounds described herein at 1 μg/mL (E. cloacae 11802): 64 µg/mL; MIC of Piperacillin with Tazo or compounds described herein at 1 μg/mL (E. coli 10001): 16 µg/mL; MIC of Piperacillin with Tazo or compounds described herein at 1 μg/mL (P. aeruginosa ATCC 27853): 4 µg/mL; MIC of Piperacillin with Tazo or compounds described herein at 1 μg/mL (E. cloacae 11801): 2 µg/mL; MIC of Piperacillin with Tazo or compounds described herein at 1 μg/mL (K. pneumoniae MRO 11007): >128 µg/mL; MIC of Piperacillin with Tazo or compounds described herein at 1 μg/mL (S. odonifera 13801): 2 µg/mL; MIC of Piperacillin with Tazo or compounds described herein at 1 μg/mL (K. pneumoniae 11012): 2 µg/mL; MIC of Piperacillin with Tazo or compounds described herein at 1 μg/mL [2]: <0.25 µg/mL; MIC of Piperacillin with Tazo or compounds described herein at 1 μg/mL (E. coli 10004): 16 µg/mL; MIC of Piperacillin with Tazo or compounds described herein at 1 μg/mL (C. freundii 12301): 16 µg/mL; MIC of Piperacillin with Tazo or compounds described herein at 1 μg/mL (P. aeruginosa 15021): 32 µg/mL; ED50 of Piperacillin in combination with inhibitor (K. pneumoniae MRO 11008): 99.48 mg/kg b.w.; ED50 of Piperacillin in combination with inhibitor (E. coli MRO 10007): 58.81 mg/kg b.w.; ED50 of Piperacillin in combination with inhibitor (E. coli MRO 10006): 37.22 mg/kg b.w.
